Experiments:
hIL-6 mRNA = experiment: Inhibition of hIL-6 mRNA transcription in LPS-stimulated U937 cells; assay type: cell-based; conditions: Homo sapiens, U-937; PMA-differentiated U937 cells, 1 h pretreatment, 1 ug/mL LPS stimulation, 3 h; read-out: IL-6 activity (Inhibition of hIL-6 mRNA Transcription)
Experimental: In this example, hIL-6 mRNA in tissue culture cells was quantitated to measure the transcriptional inhibition of hIL-6 when treated with a compound of the invention.
Human leukemic monocyte lymphoma U937 cells (CRL-1593.2) were plated at a density of 3.2×10^4 cells per well in a 96-well plate in 100 μL RPMI-1640 containing 10% FBS and penicillin/streptomycin, and differentiated into macrophages for 3 days in 60 ng/mL PMA ([…]) at 37° C. in 5% CO2 prior to the addition of compound. The cells were pretreated for 1 h with increasing concentrations of test compound in 0.1% DMSO prior to stimulation with 1 ug/mL lipopolysaccharide from Escherichia coli. Triplicate wells were used for each concentration. The cells were incubated at 37° C., 5% CO2 for 3 h before the cells were harvested. At time of harvest, media was removed and cells were rinsed in 200 μL PBS. Cells were harvested using the mRNA Catcher PLUS kit according to manufacturer's instructions. The eluted mRNA was then used in a one-step quantitative real-time PCR reaction using components of the RNA UltraSense™ One-Step Kit (Life Technologies) together with Applied Biosystems TaqMan® primer-probes for hIL-6 and Cyclophilin. Real-time PCR plates were run on a VIa™ 7 real time PCR machine (Applied Biosystems), data was analyzed, normalizing the Ct values for hIL-6 to an internal control, prior to determining the fold expression of each sample, relative to the control.

[1] = target: T1, Brd4 bromodomain 1 (BRD4(1)) (Homo sapiens, UniProt O60885); experiment: Inhibition of tetra-acetylated histone H4 binding to Brd4 bromodomain 1 (TR-FRET); conditions: tetra-acetylated histone H4 peptide, first bromodomain of Brd4
T1 construct: made in house; host or cells: E. coli BL21(DE3)
How it was run: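 Serially diluted compound (0.2% DMSO) incubated 2 h at room temperature with 200 nM N-His BRD4 bromodomain 1 and 25-50 nM biotinylated tetra-acetyl H4 peptide, detected via Eu-streptavidin/XL665 anti-His. Loss of 665 nm relative to 620 nm signal gave IC50 from dose-response.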

c-myc = experiment: Inhibition of c-myc expression (mRNA, real-time PCR) in MV4-11 cells; assay type: cell-based; conditions: Human AML MV4-11 cells, 3 h, cMYC mRNA
How it was run: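 One-step TaqMan qPCR of cMYC, normalized to an internal control with Cyclophilin probes run, gave fold expression versus DMSO (0.1%) control. Samples: triplicate MV4-11 wells exposed 3 h at 37° C to rising compound concentrations in IMDM with 10% FBS.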

human AML MV-4-11 cells = experiment: Inhibition of cell proliferation in MV4-11 cells (CellTiter Aqueous One); assay type: cell-based; conditions: for IC50: MV4-11, 72 h
How it was run: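 IC50 values come from blank-corrected proliferation relative to DMSO controls, read as 490 nm absorbance 3–4 h after CellTiter Aqueous One addition. Before that, cells seeded at 5×10^4/well were exposed for 72 h (37° C, 5% CO2) to triplicate two-fold compound dilutions spanning 30–0.2 μM.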

IC50 (hIL-6 mRNA) [nM] | IC50 [1] [nM] | IC50 (c-myc) [nM] | IC50 (human AML MV-4-11 cells) [nM] | SMILES | Cell Proliferation activity (human AML MV-4-11 cells; 72 h)
300 to 3000 | ≤ 300 | 3000 to 30000 | 300 to 3000 | Cc1noc(C)c1-c1ccc2[nH]c(=O)n(Cc3ccccc3)c2n1 [Example Compound 2, 3-Benzyl-5-(3,5-dimethylisoxazol-4-yl)-1H-imidazo[4,5-b]pyridin-2(3H)-one] | –
≤ 300 | ≤ 300 | ≤ 300 | ≤ 300 | CCNc1nc2ncc(-c3c(C)noc3C)cc2n1C(C)c1ccccc1 (stereo not drawn) [compound 113, 6-(3,5-dimethylisoxazol-4-yl)-N-ethyl-1-(1-phenylethyl)-1H-imidazo[4,5-b]pyridin-2-amine] | –
300 to 3000 | 300 to 3000 | 3000 to 30000 | 300 to 3000 | Cc1noc(C)c1-c1ccc2ncn(Cc3ccccc3)c2n1 [Example Compound 26, 4-(3-benzyl-3H-imidazo[4,5-b]pyridin-5-yl)-3,5-dimethylisoxazole] | –
300 to 3000 | ≤ 300 | 3000 to 30000 | – | Cc1noc(C)c1Nc1cnc2nc(C)n(Cc3ccccc3)c2c1 [compound 155, N-(1-benzyl-2-methyl-1H-imidazo[4,5-b]pyridin-6-yl)-3,5-dimethylisoxazol-4-amine] | Not active
≤ 300 | ≤ 300 | ≤ 300 | 300 to 3000 | Cc1noc(C)c1-c1cc(N)c2[nH]c(=O)n(Cc3ccc(O)cc3)c2c1 [compound 129, 4-amino-6-(3,5-dimethylisoxazol-4-yl)-1-(4-hydroxybenzyl)-1H-benzo[d]imidazol-2(3H)-one] | –
≤ 300 | ≤ 300 | ≤ 300 | ≤ 300 | Cc1noc(C)c1-c1cc(N)c2nc(N3CCN(C)CC3)n(Cc3ccccc3)c2c1 [compound 141, 1-benzyl-6-(3,5-dimethylisoxazol-4-yl)-2-(4-methylpiperazin-1-yl)-1H-benzo[d]imidazol-4-amine] | –
300 to 3000 | ≤ 300 | 300 to 3000 | 300 to 3000 | CCS(=O)(=O)Nc1cc(-c2c(C)noc2C)cc2c1nc(C)n2Cc1ccccc1 [Example Compound 65, N-(1-benzyl-6-(3,5-dimethylisoxazol-4-yl)-2-methyl-1H-benzo[d]imidazol-4-yl)ethanesulfonamide] | –
≤ 300 | ≤ 300 | ≤ 300 | ≤ 300 | Cc1noc(C)c1-c1cc(N)c2nc(N3CCC3)n(Cc3ccccc3)c2c1 [compound 97, 2-(azetidin-1-yl)-1-benzyl-6-(3,5-dimethylisoxazol-4-yl)-1H-benzo[d]imidazol-4-amine] | –
≤ 300 | ≤ 300 | ≤ 300 | ≤ 300 | CCNc1nc2c([N+](=O)[O-])cc(-c3c(C)noc3C)cc2n1C(C)c1ccccc1 (stereo not drawn) [compound 127, 6-(3,5-dimethylisoxazol-4-yl)-N-ethyl-4-nitro-1-(1-phenylethyl)-1H-benzo[d]imidazol-2-amine] | –
300 to 3000 | ≤ 300 | 300 to 3000 | 300 to 3000 | Cc1noc(C)c1-c1cc(F)c2nc(C)n(Cc3ccccc3)c2c1 [compound 158, 4-(1-benzyl-4-fluoro-2-methyl-1H-benzo[d]imidazol-6-yl)-3,5-dimethylisoxazole] | –
300 to 3000 | 300 to 3000 | 300 to 3000 | 3000 to 30000 | Cc1noc(C)c1-c1cnc2c(c1)ncn2Cc1ccccc1 [Example Compound 4, 4-(3-Benzyl-3H-imidazo[4,5-b]pyridin-6-yl)-3,5-dimethylisoxazole] | –
≤ 300 | ≤ 300 | ≤ 300 | ≤ 300 | Cc1noc(C)c1-c1cc(N)c2nc(C)n(C(C)c3ccccc3)c2c1 (stereo not drawn) [compound 96, 6-(3,5-dimethylisoxazol-4-yl)-2-methyl-1-(1-phenylethyl)-1H-benzo[d]imidazol-4-amine] | –
300 to 3000 | ≤ 300 | 300 to 3000 | 300 to 3000 | Cc1noc(C)c1-c1cnc2nc(C)n(Cc3ccc(F)cc3)c2c1 [Example Compound 58, 4-(1-(4-fluorobenzyl)-2-methyl-1H-imidazo[4,5-b]pyridin-6-yl)-3,5-dimethylisoxazole] | –
3000 to 30000 | 300 to 3000 | 3000 to 30000 | 3000 to 30000 | Cc1noc(C)c1-c1ccc2c(n1)[nH]c(=O)n2Cc1ccccc1 [Example Compound 3, 1-Benzyl-5-(3,5-dimethylisoxazol-4-yl)-1H-imidazo[4,5-b]pyridin-2(3H)-one] | –
300 to 3000 | 300 to 3000 | 3000 to 30000 | 300 to 3000 | Cc1noc(C)c1-c1cc(N)c2ccn(Cc3ccc(F)cc3)c2n1 [Example Compound 52, 6-(3,5-dimethylisoxazol-4-yl)-1-(4-fluorobenzyl)-1H-pyrrolo[2,3-b]pyridin-4-amine] | –
≤ 300 | ≤ 300 | ≤ 300 | ≤ 300 | Cc1noc(C)c1-c1cc(N)c2nc(N3CCCC3)n(Cc3ccccc3)c2c1 [compound 140, 1-benzyl-6-(3,5-dimethylisoxazol-4-yl)-2-(pyrrolidin-1-yl)-1H-benzo[d]imidazol-4-amine] | –
300 to 3000 | ≤ 300 | 300 to 3000 | 300 to 3000 | Cc1noc(C)c1-c1cnc2nc(C)n(Cc3cccs3)c2c1 [compound 69, 3,5-dimethyl-4-(2-methyl-1-(thiophen-2-ylmethyl)-1H-imidazo[4,5-b]pyridin-6-yl)isoxazole] | –
≤ 300 | ≤ 300 | 300 to 3000 | 300 to 3000 | Cc1noc(C)c1-c1cc([N+](=O)[O-])c2nc(NCc3cccnc3)n(Cc3ccccc3)c2c1 [compound 148, 1-benzyl-6-(3,5-dimethylisoxazol-4-yl)-4-nitro-N-(pyridin-3-ylmethyl)-1H-benzo[d]imidazol-2-amine] | –
300 to 3000 | ≤ 300 | ≤ 300 | – | Cc1noc(C)c1-c1cc(C#N)c2nc(C)n(Cc3ccccc3)c2c1 [compound 85, 1-benzyl-6-(3,5-dimethylisoxazol-4-yl)-2-methyl-1H-benzo[d]imidazole-4-carbonitrile] | –
300 to 3000 | 300 to 3000 | 3000 to 30000 | – | Cc1noc(C)c1-c1cnc2nc(C)n(CC3CC3)c2c1 [Example Compound 63, 4-(1-(cyclopropylmethyl)-2-methyl-1H-imidazo[4,5-b]pyridin-6-yl)-3,5-dimethylisoxazole] | –
300 to 3000 | ≤ 300 | – | 3000 to 30000 | Cc1noc(C)c1-c1cnc2nc(C)n(Cc3ccc(C#N)cc3)c2c1 [compound 70, 4-((6-(3,5-dimethylisoxazol-4-yl)-2-methyl-1H-imidazo[4,5-b]pyridin-1-yl)methyl)benzonitrile] | –
≤ 300 | ≤ 300 | – | ≤ 300 | Cc1noc(C)c1-c1cnc2nc(NC3CCC(O)CC3)n(Cc3ccccc3)c2c1 (stereo not drawn) [compound 207, 4-((1-benzyl-6-(3,5-dimethylisoxazol-4-yl)-1H-imidazo[4,5-b]pyridin-2-yl)amino)cyclohexanol] | –
3000 to 30000 | ≤ 300 | – | 3000 to 30000 | Cc1nc2ncc(-c3ccnn3C)cc2n1Cc1ccccc1 [compound 154, 1-benzyl-2-methyl-6-(1-methyl-1H-pyrazol-5-yl)-1H-imidazo[4,5-b]pyridine] | –

Reference: US10363257B2 (ZENITH EPIGENETICS LTD., priority 2013, dated 2019)
